Measurements taken from patent publication US20180298340A1, “SYSTEMS FOR DETECTING, MONITORING OR TREATING DISEASES OR CONDITIONS USING ENGINEERED CELLS AND METHODS FOR MAKING AND USING THEM” (The Regents of the University of California, priority 2015, published 2018).

Key:
YAP/TAZ [1] = test: MRCS-CD on firm substrate treated with mechano-sensing inhibitors; format: cell-based, human; details: firm (~40 kPa) poly-acrylamide; 50 μM blebbistatin, 10 μM ML-7, 20 μM PF228
Description: FIG. 20 graphically illustrates data showing that MRCS-CD is stiffness specific in vitro based on stiffness inhibitor studies. MRCS was plated on firm (approximately 40 kPa) poly-acrylamide and treated with (A,D,G,J) 50 μM blebbistatin and (B,E,H,K) 10 μM ML-7 (myosin light-chain kinase inhibitors) as well as (C,F,I,K) 20 μM PF228 (focal adhesion kinase inhibitor). […] Scale bar=50 μm.
MRCS-CD sensing was also shown to be reversibly stiffness-dependent (FIG. 20). Cells plated on stiff, activating substrate (approximately 40 kPa) were deactivated with the addition of blebbistatin and ML-7 (myosin light-chain kinase inhibitors) or PF228 (a focal adhesion kinase inhibitor). This was seen from the lack of GFP fluorescence (FIG. 20A-C) and from the localization of YAP/TAZ to the cytoplasm (FIG. 20D-F).

YAP/TAZ [2] = test: MRCS-Luc luciferase activity on substrates with different stiffness; format: cell-based, human; details: compared to uninhibited cells on stiff, activating substrates
Description: FIG. 18 graphically illustrates data showing that MRCS-luciferase (MRCS-Luc) is stiffness specific in vitro. MRCS-Luc was seeded on substrates with different stiffness. […] D-Luciferin: 150 μg/ml in MSC growth medium. *P<0.05, **P<0.01.
The MRCS with engineered reporter-Luc construct (MRCS-Luc) was also found to be stiffness specific in vitro, similar to MRCS-eGFP (FIG. 18). […] C-MSC constitutively expressing luciferase served as a positive control, and N-MSC with no luciferase activity served as a negative control.

YAP/TAZ [3] = test: MRCS-eGFP on firm substrate treated with mechano-sensing inhibitors (immunofluorescence); format: cell-based, human; details: firm (~40 kPa) poly-acrylamide; blebbistatin (5004 [sic]), 10 μM ML-7, 20 μM PF228
Description: FIG. 16A-L illustrate images of exemplary MRCS-eGFP showing that MRCS is stiffness specific in vitro. MRCS was plated on firm (approximately 40 kPa) poly-acrylamide and treated with (FIG. 16A, FIG. 16D, FIG. 16G, FIG. 16J) […] blebbistatin and (FIG. 16B, E, FIG. 16H, FIG. 16K) 10 μM ML-7 (myosin light-chain kinase inhibitors) as well as (FIG. 16C, FIG. 16F, FIG. 16I, FIG. 16K) 20 μM PF228 (focal adhesion kinase inhibitor). […] Scale bar=50 μm.
MRCS-eGFP sensing was also shown to be reversibly stiffness-dependent (FIG. 16). Cells plated on stiff, activating substrate (approximately 40 kPa) were deactivated with the addition of blebbistatin and ML-7 (myosin light-chain kinase inhibitors) or PF228 (a focal adhesion kinase inhibitor). This was seen from the lack of GFP fluorescence (FIG. 16A-C) and from the localization of YAP/TAZ to the cytoplasm (FIG. 16D-F). Real-time RT-PCR was performed on the seeded MRCS-eGFP cells to quantify relative mRNA expression levels of eGFP and two downstream factors of YAP/TAZ, CTGF (Connective Tissue Growth Factor) and ANKRDI (ANKyrin Repeat Domain-containing protein 1) (FIG. 17). […] N-MSC plated on stiff substrate was a control.

[4] = cited from earlier work

O=S(=O)(c1cccc2c(I)cccc12)N1CCCNCC1 [ML-7]
YAP/TAZ localization in MRCS-CD with inhibitor (YAP/TAZ [1]): in cytoplasm
cytosine deaminase (CD) of MRCS with inhibitor (YAP/TAZ [1]): turned off
luciferase expression levels of MRCS-Luc with inhibitor (YAP/TAZ [2]): significantly lowered
YAP/TAZ localization in MRCS with inhibitor (YAP/TAZ [3]): in cytoplasm
eGFP of MRCS with inhibitor (YAP/TAZ [3]): turned off

CS(=O)(=O)c1cccc(CNc2nc(Nc3ccc4c(c3)CCC(=O)N4)ncc2C(F)(F)F)c1 [PF228]
YAP/TAZ localization in MRCS-CD with inhibitor (YAP/TAZ [1]): in cytoplasm
cytosine deaminase (CD) of MRCS with inhibitor (YAP/TAZ [1]): turned off
luciferase expression levels of MRCS-Luc with inhibitor (YAP/TAZ [2]): significantly lowered
YAP/TAZ localization in MRCS with inhibitor (YAP/TAZ [3]): in cytoplasm
eGFP of MRCS with inhibitor (YAP/TAZ [3]): turned off

Cc1ccc2c(c1)C(=O)C1(O)CCN(c3ccccc3)C1=N2 (stereo not shown) [blebbistatin]
YAP/TAZ localization in MRCS-CD with inhibitor (YAP/TAZ [1]): in cytoplasm
cytosine deaminase (CD) of MRCS with inhibitor (YAP/TAZ [1]): turned off
luciferase expression levels of MRCS-Luc with inhibitor (YAP/TAZ [2]): significantly lowered
YAP/TAZ localization in MRCS with inhibitor (YAP/TAZ [3]): in cytoplasm
eGFP of MRCS with inhibitor (YAP/TAZ [3]): turned off

E. coli beta-gal: E. coli beta-galactosidase reporter enzyme
plasma half-life [4]: less than 60 min
